Results from ChEMBL document CHEMBL3352455, “Small molecule disruptors of the glucokinase-glucokinase regulatory protein interaction: 4. Exploration of a novel binding pocket” (J Med Chem, 2014).

How the values were obtained:
[1] = Intrinsic clearance in human liver microsomes at 1 uM after 30 mins in presence of NADPH; format: ADME; conditions: read-out: CLH
[2] = molecular target: T1, Hexokinase-4 (Homo sapiens, UniProt P35557); experiment: Inhibition of fluorescein-labeled human GK interaction with biotin-labeled human GKRP compound incubated for 20 mins prior to addition of fluorescein-labeled GK measured after 2 to 4 hrs by AlphaScreen assay
T1 sequence (P35557 whole entry): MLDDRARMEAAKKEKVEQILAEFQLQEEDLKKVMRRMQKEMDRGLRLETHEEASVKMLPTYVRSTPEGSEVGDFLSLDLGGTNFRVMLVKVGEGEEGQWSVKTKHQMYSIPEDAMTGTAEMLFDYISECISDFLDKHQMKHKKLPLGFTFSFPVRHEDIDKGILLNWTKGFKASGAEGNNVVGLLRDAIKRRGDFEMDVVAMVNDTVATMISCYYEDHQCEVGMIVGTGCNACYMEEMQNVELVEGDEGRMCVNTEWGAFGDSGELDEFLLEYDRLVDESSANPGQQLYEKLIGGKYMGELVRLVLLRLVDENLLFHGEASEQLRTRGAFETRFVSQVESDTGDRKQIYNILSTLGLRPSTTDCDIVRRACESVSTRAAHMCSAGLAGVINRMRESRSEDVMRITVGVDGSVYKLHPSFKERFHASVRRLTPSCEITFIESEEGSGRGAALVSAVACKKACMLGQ

[3] = Intrinsic clearance in rat liver microsomes at 1 uM after 30 mins in presence of NADPH; format: ADME; conditions: read-out: CLH
[4] = AUC in Sprague-Dawley rat at 10 mg/kg, po; format: ADME, organism-based; set-up: dose 10 mg/kg, route oral; conditions: plasma
[5] = system: Mus musculus; experiment: Antidiabetic activity in insulin-resistant db/db mouse assessed as reduction of fed blood glucose level at 10 to 100 mg/kg, po measured at 6 hrs relative to vehicle-treated control; format: functional; set-up: scale not given: the % may be the effect or the level left; conditions: dose mg/kg 10-100
[6] = molecular target: Cytochrome P450 3A4 (Homo sapiens, UniProt P08684); experiment: Inhibition of CYP3A4 (unknown origin); format: ADME
Chain of Cytochrome P450 3A4 (P08684 whole entry): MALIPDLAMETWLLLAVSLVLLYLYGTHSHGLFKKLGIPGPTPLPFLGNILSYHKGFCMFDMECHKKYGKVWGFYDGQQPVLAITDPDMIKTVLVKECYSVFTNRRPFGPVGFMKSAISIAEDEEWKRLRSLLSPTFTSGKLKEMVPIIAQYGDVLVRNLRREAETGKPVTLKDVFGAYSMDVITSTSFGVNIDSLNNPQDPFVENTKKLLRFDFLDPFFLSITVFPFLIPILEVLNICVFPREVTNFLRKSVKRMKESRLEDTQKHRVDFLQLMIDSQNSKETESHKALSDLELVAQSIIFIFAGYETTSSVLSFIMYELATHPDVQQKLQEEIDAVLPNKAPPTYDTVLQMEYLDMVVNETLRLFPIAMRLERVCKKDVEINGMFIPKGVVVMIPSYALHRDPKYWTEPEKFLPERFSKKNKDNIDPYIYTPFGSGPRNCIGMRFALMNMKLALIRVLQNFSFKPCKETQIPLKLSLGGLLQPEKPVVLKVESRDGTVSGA

[7] = molecular target: Cytochrome P450 2D6 (Homo sapiens, UniProt P10635); experiment: Inhibition of CYP2D6 (unknown origin); format: ADME
Chain of Cytochrome P450 2D6 (P10635 whole entry): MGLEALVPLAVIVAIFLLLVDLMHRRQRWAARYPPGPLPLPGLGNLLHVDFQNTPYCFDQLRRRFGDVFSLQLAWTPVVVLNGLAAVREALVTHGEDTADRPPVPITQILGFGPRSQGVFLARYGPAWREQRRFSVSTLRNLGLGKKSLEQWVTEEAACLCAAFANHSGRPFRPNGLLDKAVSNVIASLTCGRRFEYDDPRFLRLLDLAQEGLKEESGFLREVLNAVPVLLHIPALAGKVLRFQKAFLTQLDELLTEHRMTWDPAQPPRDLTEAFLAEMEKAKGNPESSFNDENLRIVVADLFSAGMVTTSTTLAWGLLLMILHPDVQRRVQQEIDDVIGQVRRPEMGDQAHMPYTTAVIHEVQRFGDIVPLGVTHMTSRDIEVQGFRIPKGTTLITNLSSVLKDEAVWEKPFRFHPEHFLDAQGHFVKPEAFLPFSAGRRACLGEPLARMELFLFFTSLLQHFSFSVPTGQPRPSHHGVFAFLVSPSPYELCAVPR

[8] = Mean residence time in Sprague-Dawley rat at 2 mg/kg, iv; format: ADME, organism-based; set-up: dose 2 mg/kg, route intravenous; conditions: in vivo
[9] = Volume of distribution at steady state in Sprague-Dawley rat at 2 mg/kg, iv; format: ADME, organism-based; set-up: dose 2 mg/kg, route intravenous; conditions: in vivo, read-out: Vdss
[10] = Clearance in Sprague-Dawley rat at 2 mg/kg, iv; format: ADME, organism-based; set-up: dose 2 mg/kg, route intravenous; conditions: in vivo
[11] = Oral bioavailability in Sprague-Dawley rat at 10 mg/kg; format: ADME, organism-based; conditions: in vivo
[12] = Fraction unbound in Sprague-Dawley rat plasma; format: ADME, cell-free

Structure (SMILES): Nc1ccc(S(=O)(=O)N2CCN(c3ncc(C(O)(C(F)(F)F)C(F)(F)F)cc3-c3ccc4[nH]ncc4c3)CC2)cn1
- microsomal CLint at 1 µM [1]: 27 µL/min/mg
- IC50 [2]: 60 nM
- microsomal CLint at 1 µM [3]: 88 µL/min/mg

Structure (SMILES): Nc1ccc(S(=O)(=O)N2CCN(c3ncc(C(O)(C(F)(F)F)C(F)(F)F)cc3-c3cc[nH]n3)CC2)cn1
- microsomal CLint at 1 µM [1]: < 14 µL/min/mg
- IC50 [2]: 201 nM
- microsomal CLint at 1 µM [3]: 20 µL/min/mg

Structure (SMILES): Nc1ccc(S(=O)(=O)N2CCN(c3ncc(C(O)(C(F)(F)F)C(F)(F)F)cc3Cl)CC2)cn1
- microsomal CLint at 1 µM [1]: < 14 µL/min/mg
- IC50 [2]: 201 nM
- microsomal CLint at 1 µM [3]: 26 µL/min/mg

Structure (SMILES): Nc1ccc(S(=O)(=O)N2CCN(c3ncc(C(O)(C(F)(F)F)C(F)(F)F)cc3-c3cccc4[nH]ncc34)CC2)cn1
- microsomal CLint at 1 µM [1]: 42 µL/min/mg
- IC50 [2]: 1950 nM
- microsomal CLint at 1 µM [3]: 93 µL/min/mg

Structure (SMILES): Nc1ccc(S(=O)(=O)N2CCN(c3ncc(C(O)(C(F)(F)F)C(F)(F)F)cc3C#CCO)CC2)cn1
- microsomal CLint at 1 µM [1]: < 14 µL/min/mg
- IC50 [2]: 14 nM
- microsomal CLint at 1 µM [3]: 65 µL/min/mg

Structure (SMILES): Nc1ccc(S(=O)(=O)N2CCN(c3ncc(C(O)(C(F)(F)F)C(F)(F)F)cc3-c3cccc(F)c3)CC2)cn1
- microsomal CLint at 1 µM [1]: 25 µL/min/mg
- IC50 [2]: 8 nM
- microsomal CLint at 1 µM [3]: 52 µL/min/mg

Structure (SMILES): Nc1ccc(S(=O)(=O)N2CCN(c3ncc(C(O)(C(F)(F)F)C(F)(F)F)cc3-c3cccnc3)CC2)cn1
- AUC [4]: 4.74 µM·h
- microsomal CLint at 1 µM [1]: 17 µL/min/mg
- Activity [5]: 25%
- IC50 [6]: 27000 nM
- IC50 [7]: 27000 nM
- IC50 [2]: 5 nM
- MRT [8]: 2.18 h
- Vd [9]: 3.36 L/kg
- clearance [10]: 25 mL/min/kg
- microsomal CLint at 1 µM [3]: 20 µL/min/mg
- bioavailability [11]: 43%
- fraction unbound [12]: 0.021

Structure (SMILES): CC(C)n1cc(-c2cc(C(O)(C(F)(F)F)C(F)(F)F)cnc2N2CCN(S(=O)(=O)c3ccc(N)nc3)CC2)cn1
- microsomal CLint at 1 µM [1]: 38 µL/min/mg
- IC50 [2]: 23 nM
- microsomal CLint at 1 µM [3]: 198 µL/min/mg

Structure (SMILES): Cc1ccc(-c2cc(C(O)(C(F)(F)F)C(F)(F)F)cnc2N2CCN(S(=O)(=O)c3ccc(N)nc3)CC2)cn1
- microsomal CLint at 1 µM [1]: 43 µL/min/mg
- IC50 [2]: 40 nM
- microsomal CLint at 1 µM [3]: 182 µL/min/mg

Structure (SMILES): Nc1ccc(S(=O)(=O)N2CCN(c3ncc(C(O)(C(F)(F)F)C(F)(F)F)cc3-c3cncc(F)c3)CC2)cn1
- microsomal CLint at 1 µM [1]: 24 µL/min/mg
- IC50 [2]: 11 nM
- microsomal CLint at 1 µM [3]: 19 µL/min/mg

Structure (SMILES): Nc1ccc(S(=O)(=O)N2CCN(c3ncc(C(O)(C(F)(F)F)C(F)(F)F)cc3-c3ccccc3O)CC2)cn1
- microsomal CLint at 1 µM [1]: 22 µL/min/mg
- IC50 [2]: 6 nM
- microsomal CLint at 1 µM [3]: 125 µL/min/mg

Structure (SMILES): Cc1nc2cc(-c3cc(C(O)(C(F)(F)F)C(F)(F)F)cnc3N3CCN(S(=O)(=O)c4ccc(N)nc4)CC3)ccc2o1
- microsomal CLint at 1 µM [1]: < 14 µL/min/mg
- IC50 [2]: 15 nM
- microsomal CLint at 1 µM [3]: 99 µL/min/mg

Structure (SMILES): CS(=O)(=O)c1ccc(-c2cc(C(O)(C(F)(F)F)C(F)(F)F)cnc2N2CCN(S(=O)(=O)c3ccc(N)nc3)CC2)cc1
- microsomal CLint at 1 µM [1]: 32 µL/min/mg
- IC50 [2]: 42 nM
- microsomal CLint at 1 µM [3]: 103 µL/min/mg

Structure (SMILES): COc1cc(C(O)(C(F)(F)F)C(F)(F)F)cnc1N1CCN(S(=O)(=O)c2ccc(N)nc2)CC1
- microsomal CLint at 1 µM [1]: < 14 µL/min/mg
- IC50 [2]: 1110 nM
- microsomal CLint at 1 µM [3]: < 14 µL/min/mg

Structure (SMILES): Nc1ccc(S(=O)(=O)N2CCN(c3ncc(C(O)(C(F)(F)F)C(F)(F)F)cc3-c3ccncc3)CC2)cn1
- microsomal CLint at 1 µM [1]: 15 µL/min/mg
- IC50 [2]: 21 nM
- microsomal CLint at 1 µM [3]: 31 µL/min/mg

Structure (SMILES): Nc1ccc(S(=O)(=O)N2CCN(c3ncc(C(O)(C(F)(F)F)C(F)(F)F)cc3C3CC3)CC2)cn1
- microsomal CLint at 1 µM [1]: 38 µL/min/mg
- IC50 [2]: 601 nM
- microsomal CLint at 1 µM [3]: 27 µL/min/mg

Structure (SMILES): CS(=O)(=O)Nc1cccc(-c2cc(C(O)(C(F)(F)F)C(F)(F)F)cnc2N2CCN(S(=O)(=O)c3ccc(N)nc3)CC2)c1
- microsomal CLint at 1 µM [1]: 40 µL/min/mg
- IC50 [2]: 309 nM
- microsomal CLint at 1 µM [3]: 81 µL/min/mg

Structure (SMILES): Nc1ccc(S(=O)(=O)N2CCN(c3ncc(C(O)(C(F)(F)F)C(F)(F)F)cc3-c3ccc4scnc4c3)CC2)cn1
- microsomal CLint at 1 µM [1]: 39 µL/min/mg
- IC50 [2]: 35 nM
- microsomal CLint at 1 µM [3]: 147 µL/min/mg

Structure (SMILES): Nc1ccc(S(=O)(=O)N2CCN(c3ncc(C(O)(C(F)(F)F)C(F)(F)F)cc3Br)CC2)cn1
- microsomal CLint at 1 µM [1]: < 14 µL/min/mg
- IC50 [2]: 112 nM
- microsomal CLint at 1 µM [3]: 32 µL/min/mg

Structure (SMILES): Nc1ccc(S(=O)(=O)N2CCN(c3ncc(C(O)(C(F)(F)F)C(F)(F)F)cc3C#CCCO)CC2)cn1
- microsomal CLint at 1 µM [1]: < 14 µL/min/mg
- IC50 [2]: 17 nM
- microsomal CLint at 1 µM [3]: 68 µL/min/mg

Structure (SMILES): CCn1cc(-c2cc(C(O)(C(F)(F)F)C(F)(F)F)cnc2N2CCN(S(=O)(=O)c3ccc(N)nc3)CC2)cn1
- microsomal CLint at 1 µM [1]: 20 µL/min/mg
- IC50 [2]: 5 nM
- microsomal CLint at 1 µM [3]: 194 µL/min/mg

Structure (SMILES): Nc1ccc(S(=O)(=O)N2CCN(c3ncc(C(O)(C(F)(F)F)C(F)(F)F)cc3-c3ccc(F)cc3)CC2)cn1
- microsomal CLint at 1 µM [1]: < 14 µL/min/mg
- IC50 [2]: 11 nM
- microsomal CLint at 1 µM [3]: 40 µL/min/mg

Structure (SMILES): Cn1cc(-c2cc(C(O)(C(F)(F)F)C(F)(F)F)cnc2N2CCN(S(=O)(=O)c3ccc(N)nc3)CC2)cn1
- AUC [4]: 2.8 µM·h
- microsomal CLint at 1 µM [1]: 19 µL/min/mg
- IC50 [6]: 27000 nM
- IC50 [7]: 18000 nM
- IC50 [2]: 1 nM
- MRT [8]: 1.34 h
- Vd [9]: 2.57 L/kg
- clearance [10]: 33.3 mL/min/kg
- microsomal CLint at 1 µM [3]: 44 µL/min/mg
- bioavailability [11]: 30%
- fraction unbound [12]: 0.011

Structure (SMILES): NC(=O)c1cccc(-c2cc(C(O)(C(F)(F)F)C(F)(F)F)cnc2N2CCN(S(=O)(=O)c3ccc(N)nc3)CC2)c1
- microsomal CLint at 1 µM [1]: 17 µL/min/mg
- IC50 [2]: 50 nM
- microsomal CLint at 1 µM [3]: 63 µL/min/mg

Structure (SMILES): Cc1cncc(-c2cc(C(O)(C(F)(F)F)C(F)(F)F)cnc2N2CCN(S(=O)(=O)c3ccc(N)nc3)CC2)c1
- microsomal CLint at 1 µM [1]: 37 µL/min/mg
- IC50 [2]: 29 nM
- microsomal CLint at 1 µM [3]: 259 µL/min/mg

Structure (SMILES): Nc1ccc(S(=O)(=O)N2CCN(c3ncc(C(O)(C(F)(F)F)C(F)(F)F)cc3-c3ccccc3)CC2)cn1
- microsomal CLint at 1 µM [1]: < 14 µL/min/mg
- IC50 [2]: 7 nM
- microsomal CLint at 1 µM [3]: 49 µL/min/mg

Structure (SMILES): Nc1ccc(S(=O)(=O)N2CCN(c3ncc(C(O)(C(F)(F)F)C(F)(F)F)cc3-c3ccccc3F)CC2)cn1
- microsomal CLint at 1 µM [1]: < 14 µL/min/mg
- IC50 [2]: 7 nM
- microsomal CLint at 1 µM [3]: 47 µL/min/mg

Structure (SMILES): Cn1cc(-c2cc(C(O)(C(F)(F)F)C(F)(F)F)cnc2N2CCN(S(=O)(=O)c3ccc(N)nc3)CC2)c(C(F)(F)F)n1
- microsomal CLint at 1 µM [1]: 50 µL/min/mg
- IC50 [2]: 30000 nM
- microsomal CLint at 1 µM [3]: 121 µL/min/mg
